Results published in PMC11891452, “Molecular Insights Into β‐Glucuronidase Inhibition by Alhagi Graecorum Flavonoids: A Computational and Experimental Approach” (ChemistryOpen, 2024).

Columns and labels:
β‐glucuronidase [1] = target: T1, β‐glucuronidase (Escherichia coli, UniProt P05804); experiment: in vitro β‐glucuronidase inhibition assay with PNPG as substrate; type: biochemical; details: pH 7.4, 37 °C, 30 min, mean±SD; for IC50: PNPG substrate; for inhibition at 10 µM: inhibitor 10 μM, PNPG 250 μM, read-out: Inhibition rate 10 μM (%)
T1 construct: purchased Sigma (USA)
Text: The substrate p‐Nitrophenyl‐β‐D‐glucuronide (PNPG) and the employed reference drug (−)‐Epigallocatechin gallate (EGCG) were purchased from Sigma‐Aldrich. For this study, β‐glucuronidase, the enzyme of interest, was purchased from Sigma (USA). All other chemicals and solvents used were in the highest purity state or HPLC grade. Five isolated flavonoids from A. graecorum were assigned for their β‐glucuronidase inhibitory efficacy. We prepared the β‐glucuronidase enzyme according to the method reported by Weng et al..[27] A 100 mM stock solution of the substrate (PNPG) was prepared using […] and stored at −20 °C for subsequent utilization. Milli‐Q water was used exclusively for both the PNPG solution and the 0.1 M phosphate buffer solution (pH 7.4).
To estimate the activities of tested flavonoids as inhibitors against β‐glucuronidase, we employed PNPG as the substrate. The assessment procedure followed well‐documented previously reported protocols.[28] In brief, 96‐well plate assays were performed (100 μL/well) to assess β‐glucuronidase inhibition by flavonoids. Each well contained: β‐glucuronidase (2 μg/mL, 10 μL), flavonoid/EGCG inhibitor (10 μM, 10 μL), PNPG substrate (250 μM, 10 μL), and PBS buffer (pH 7.4, 70 μL). Reactions were done in triplicate. Enzyme activity was estimated by tracking PNP formation (OD₄₁₀ nm) after incubation (37 °C, 30 min). A standard curve (0–120 μM PNP) was used to quantify PNP. Relative activity (%) was calculated compared to the blank control. In addition, EGCG was employed as a reference drug. IC50 assays for flavonoid inhibition of β‐glucuronidase were conducted at temperature of 37 °C for 30 minutes. Each reaction contained: β‐glucuronidase (2.0 μg/mL, 10 μL), flavonoid/EGCG (varying concentrations, 0.001–1000 μM, 10 μL), and PBS buffer (pH 7.4, 70 μL). Relative activity (%) was measured as enzyme activity with an inhibitor compared to activity without an inhibitor. A concentration‐response curve was constructed using relative activity data to determine IC50 values.
(§1) To ensure reproducibility, all data are presented as the mean value±standard deviation (SD). This reflects the average value obtained from three independent trials. IC50 values, signifying the inhibitor concentration required for half‐maximal response, were determined from the concentration‐response curves. The IC50 and inhibition constant (Ki) values were estimated using nonlinear regression by the GraphPad Prism 9.0 software.

β‐glucuronidase [2] = target: T1, β‐glucuronidase; experiment: inhibition kinetics (Michaelis‐Menten, Lineweaver‐Burk and slope plots) of PNPG hydrolysis; type: biochemical; details: for mode of inhibition: Lineweaver‐Burk plots, PNPG hydrolysis; for Ki: PNPG 200-1000 μM, from slope plots of Lineweaver‐Burk plots
Text: To analyze the binding interactions between the tested inhibitors and the target enzyme, we constructed Michaelis‐Menten and Lineweaver‐Burk plots. These plots helped us understand how the inhibitors affect the enzyme′s kinetics. The Lineweaver‐Burk plot′s intersection point was used to identify the inhibition mode (noncompetitive, competitive, uncompetitive, or mixed). Established methods were employed to determine the specific inhibition mode and Ki values.[27, 28]
as §1

T1 sequence (P05804 whole entry): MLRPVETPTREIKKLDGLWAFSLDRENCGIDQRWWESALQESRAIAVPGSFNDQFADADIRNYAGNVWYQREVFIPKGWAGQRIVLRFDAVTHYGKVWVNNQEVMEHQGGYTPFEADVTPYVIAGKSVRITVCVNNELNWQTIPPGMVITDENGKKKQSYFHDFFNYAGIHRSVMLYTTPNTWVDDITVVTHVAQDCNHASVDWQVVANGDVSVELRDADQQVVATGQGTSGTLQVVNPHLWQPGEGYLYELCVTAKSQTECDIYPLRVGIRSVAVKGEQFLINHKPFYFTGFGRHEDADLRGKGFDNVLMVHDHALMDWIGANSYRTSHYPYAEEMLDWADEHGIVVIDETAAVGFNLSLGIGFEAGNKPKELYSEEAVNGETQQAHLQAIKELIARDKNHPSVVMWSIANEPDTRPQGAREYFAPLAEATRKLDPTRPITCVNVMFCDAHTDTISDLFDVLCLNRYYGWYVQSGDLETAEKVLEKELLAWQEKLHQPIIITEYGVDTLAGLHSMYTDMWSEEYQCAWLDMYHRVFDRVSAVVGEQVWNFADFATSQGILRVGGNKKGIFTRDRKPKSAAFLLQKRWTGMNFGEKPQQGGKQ

Structure (SMILES) | IC50 (β‐glucuronidase [1]) [µM] | inhibition at 10 µM (β‐glucuronidase [1]) [%] | mode of inhibition (β‐glucuronidase [2]) | Ki (β‐glucuronidase [2]) [µM]
O=C(O[C@@H]1Cc2c(O)cc(O)cc2O[C@@H]1c1cc(O)c(O)c(O)c1)c1cc(O)c(O)c(O)c1 [EGCG, (−)‐Epigallocatechin gallate, reference compound] | 3.26 ± 0.05 | 96.14 ± 0.54 | mixed | 1.42
COc1cc(-c2cc(=O)c3c(O)cc(O)cc3o2)ccc1O [chrysoeriol] |  | 87.97 ± 0.65 | noncompetitive | 
COc1cc(-c2oc3cc(O)cc(O)c3c(=O)c2O)ccc1O [isorhamnetin] | 26.4 ± 0.72 | 73.9 ± 1.09 |  | 
O=c1c(O)c(-c2cc(O)c(O)c(O)c2)oc2cc(O)cc(O)c12 [myricetin] | 3.95 ± 0.04 | 92.59 ± 0.56 | noncompetitive | 3.07
O=C1C[C@@H](c2ccc(O)cc2)Oc2cc(O)cc(O)c21 [naringenin] | 52.3 ± 2.44 | 56 ± 2.5 |  | 
COc1ccc(-c2oc3cc(O)cc(O)c3c(=O)c2O)cc1O [tamarixetin] | 19.9 ± 1.23 | 80 ± 1.71 |  | 
